# Measured values as given in a melting point compilation (Tetko et al.; mined from patent text by program, amines drawn as free bases though some values may be those of a salt).
row,SMILES,melting point [°C]
1,CCOc1cccc(-c2cnn3c(-c4cccc(NC(=O)CC(C)C)c4)ccnc23)c1,156 to 158
2,COc1c(N)cc(C2(C)CC2)cc1NS(C)(=O)=O,144 to 146
3,COC(=O)C(F)[C@@H]1[C@H]2O[C@H]2C[C@H]1O (stereo partly drawn),31 to 33
4,Nc1nc(N)nc(C2(c3ccccc3)CCCCC2)n1,153 to 155
5,COc1cc(C(O)P(=O)(OC)OC)cc(OC)c1OC (stereo not drawn),103 to 104
6,C1=C(c2c[nH]cn2)c2ccccc2C1,232 to 240
7,FC(F)(F)Sc1ccc(C(F)(F)F)cc1,30 to 31
8,CNC(=NCCCSCc1[nH]cnc1C)NC#N,156 to 158
9,O=C1OC(Cl)(Cl)c2c(Cl)c(Cl)c(Cl)c(Cl)c21,136 to 138
10,CC(=O)Oc1cc(/C=C/c2ccc(OC(=O)C(C)(C)Oc3ccc(C(=O)c4ccc(Cl)cc4)cc3)cc2)cc(OC(C)=O)c1,112 to 113
11,CCCCN(C(=O)C1CC1)c1nnc(C)s1,82 to 84
12,CC(C)(C)OC(=O)NC(Cc1ccccc1)C(O)C(N)Cc1ccccc1 (stereo not drawn),134 to 135
13,CCCc1c2nc(C(=O)OC)cc(Cl)c2cc2c(=O)cc(C(=O)OCC)oc12,176 to 178
14,Cc1cc(C)cc(-c2cnn3c(-c4cccc(-c5nnn(Cc6cccnc6)n5)c4)ccnc23)c1,73
15,CCCCCCCCCCCCCCOCC(C=CC(=O)N(C)C)(C=CC(=O)N(C)C)COCCCCCCCCCCCCCC,59 to 61
16,Cc1cc(CC(C)(C)C=O)cc(C)c1O,72 to 73
17,C=C(c1ccc(OC)c(OC2CCCC2)c1)c1n[nH]cc1CO,121 to 123
18,CC(C)CCOc1cccc2oc(-c3nnn[nH]3)cc(=O)c12,165 to 166
19,COc1cccc2c(=O)c3ccc(SC)cc3oc12,201 to 203
20,CSC(=N)Nc1nc(C(C)(C)C)c(O)c(C(C)(C)C)n1,163 to 165

row,SMILES,melting point [°C]
1,CCCCC1OC(=O)c2cc(NC(N)=O)ccc21 (stereo not drawn),196 to 199
2,NC(=O)CCCCCCCCCCC(=O)O,129 to 131
3,CC1(O)CCC2(C)C(CCC3C2CCC2(C)C(c4cn5ccccc5n4)CCC32)C1 (stereo not drawn),225 to 226
4,Cc1c(-c2ccc3oc(=O)n(C)c3c2)nc2c(OCc3ccccc3)cccn12,210
5,CCCNC(=O)N(Cc1ccc(Cl)cc1)C1CCCC1,103 to 105
6,CCCC(Cc1ccc(OCCN2CCCCCC2)cc1)(C(=O)NO)S(=O)(=O)c1ccc(OC)cc1 (stereo not drawn),85
7,CN1CCCc2c1cc[nH]c2=O,260
8,CC1(C)COC(c2cc(-c3ccncc3)n(-c3ccc(F)cc3)n2)OC1,150 to 151
9,CCN(CC)C(=S)SCCNC(=O)CCNC(=O)OCc1ccccc1,90 to 93
10,Cc1ccc(C(O)C2OC(n3cc(C)c(=O)[nH]c3=O)CC2(O)c2ccc(C)cc2)cc1 (stereo not drawn),194 to 196
11,COC(=O)CN1CN(c2ccccc2)C2(CCN(Cc3cccc4ccccc34)CC2)C1=O,122 to 135
12,CC(C)(C)c1cc(-c2nn(CCCCl)c3ncccc23)cc(C(C)(C)C)c1O,107 to 109
13,Cc1c(C#N)ccc(N)c1C#N,209 to 210
14,FC(F)(F)c1cnc(-n2ccc3ccncc32)c(Cl)c1,88 to 90
15,C=CCNCc1c(CO)nc2n1-c1ccc(Cl)cc1C(c1ccccc1F)=NC2,140
16,COC(=O)c1cc(N=C=S)c(C)cc1OC,86 to 87.5
17,Cc1nc(-c2ccc(O)cc2)[nH]c1Cl,226 to 228
18,OCc1cccc2c1[nH]c1c3cc(Br)ccc3oc21,218 to 219
19,CCCC(c1ccc(NC(C)=O)cc1)n1ccnc1 (stereo not drawn),186
20,CCCOc1ccc2c(c1)C(c1ccc(OC)cc1OCc1ccccc1)=C(C(=O)OC)[C@H]2c1ccc2c(c1)OCO2,114 to 117

row,SMILES,melting point [°C]
1,CS(=O)(=O)CC(=O)NC(=O)N1CC1C#N (stereo not drawn),126 to 128
2,CCOC(=O)Cc1nnc(NS(=O)(=O)c2ccc(NC(C)=O)cc2)s1,156 to 157
3,Cc1noc(-c2ncn3c2[C@@H]2CCN2C(=O)c2c(Cl)cccc2-3)n1,239 to 240
4,COc1ccc(C2(C)C=C(Cl)N=CN2)cc1 (stereo not drawn),65 to 67
5,O=C1C=CC(=O)N1c1ccc([N+](=O)[O-])cc1,163 to 165
6,CCCNc1c(NCCCOc2cccc(CN3CCCCC3)c2)c(=O)c1=O,158 to 160
7,CC(C)(C)OC(=O)NC1C=C(C(=O)O)OC1 (stereo not drawn),117 to 120
8,CN1CCN2c3ccccc3Cn3cccc3C2C1 (stereo not drawn),98 to 100
9,O=C(Cn1c(-c2ccc(Br)cc2)nc2cccnc21)N1CCCCC1,175 to 176
10,O=C1NCCN1CCN1CC=C(c2cn(-c3ccc(F)cc3)c3ccc(C(F)(F)F)cc23)CC1,200
11,COc1ccc(-c2ccc(C=NO)o2)cc1OC,140 to 142
12,COc1ccc(NS(=O)(=O)c2ccc(N3CCC(=O)CC3)cc2)cc1OC,50 to 56
13,CC(CCC=O)C1CCC2C3CC=C4CC(O)CC(O)C4(C)C3CCC12C (stereo not drawn),120 to 122
14,CCCSc1ncnc2c(N3CCCCC3)nc(Cl)nc12,107 to 109
15,C=CCN1C2CCC1C1CCC2N1C(c1ccc(C(=O)N2CCCC2)cc1)c1cccc(O)c1 (stereo not drawn),156 to 158
16,CNC(NCc1ccc(Cl)nc1)=C(C(=S)NS(C)(=O)=O)[N+](=O)[O-],129 to 131
17,Cc1nc2ncnn2c(C2CCCCC2)c1-c1c(F)cc(OCCCN(C)C)cc1F,95 to 97
18,C#CC1(OCc2ccc(Cl)cc2F)CCN(C(C)=O)CC1,70 to 74
19,C[C@@H](n1cc(-c2ccccc2)nn1)[C@](O)(Cn1cncn1)c1ccc(F)cc1F,148 to 149
20,FC(F)(F)Oc1ccc(-c2nccc(Cl)n2)cc1,70 to 73

# Other lines, results leading:
row,melting point [°C],SMILES
1,201 to 202,Cc1ccc(C(=O)Nc2ccc(CCc3ccc(O)c(O)c3)cc2)c(O)c1
2,141 to 143,O=C(N[C@H]1C[C@H](C(=O)O)Nc2cc(Cl)cc(Cl)c21)c1ccccc1Cl (relative stereo)
3,114 to 115,NC(=O)CC1(c2ccccc2)Oc2ccccc2O1
4,138 to 141,CCCCc1nc(C(C)(C)O)c(C(=O)O)n1Cc1ccc(-c2ccccc2-c2nnn[nH]2)cc1
5,78 to 80,CS(=O)(=O)N(C(=O)OCc1ccccc1)c1cc(OC[C@@H]2CO2)ccc1OCc1ccccc1
6,234 to 235,N#Cc1ccc2oc(CCc3ccc(C(=O)O)cc3)cc2c1
7,258 to 266,CN=C(O)c1cc(Cl)c(Sc2ccccc2C(=O)O)cc1C(=O)O
8,175,O=C(NCCOc1ccc(-c2ccccc2)cc1)N[C@@H](Cc1ccccc1)C(=O)O
9,185 to 189,CC(=O)Nc1ccc(-c2cccc(C3=NC(C)(C)Cc4cc(O)c5c(c43)CC(C)(C)O5)c2)cc1
10,121 to 126,COc1cc(Nc2c(C#N)cnc3cc(-c4ccc(CN5CCC[C@@H]5C(N)=O)o4)ccc23)c(Cl)cc1Cl
11,195 to 197,NC(=O)C1CCc2ccc(C(=O)c3ccccc3)cc21 (stereo not drawn)
12,196 to 197,O=C(O)CNC(=O)Nc1cccc(C(=O)O)c1
13,205 to 206,CN1CCC(=C2c3ccccc3CC(O)c3ccccc32)CC1 (stereo not drawn)
14,169 to 170,Cc1nn(-c2ccccc2)c(C)c1CC(N)=O
15,128 to 130,O=CN1CCC(c2nn(-c3ccc(F)cc3)c3ccccc23)CC1
16,212 to 215,COc1cccc2c1C[C@H]1C[C@@H](CCN3CCC(O)(c4ccc(Cl)cc4)CC3)CN(C)[C@@H]1C2
17,266,O=C1OC(=O)c2cc3cc(O)ccc3cc21
18,73 to 74,CC(CO)c1ccc(-c2ccccc2F)cc1 (stereo not drawn)
19,84 to 85,O=C(Cl)c1cc(OCc2ccccc2)cc([N+](=O)[O-])c1
20,101 to 103,Cc1ccc(S(=O)(=O)OCC2CN(C(=O)Oc3ccccc3)CCO2)cc1 (stereo not drawn)
21,125,c1ccc(C2NCCNCc3ccccc32)cc1 (stereo not drawn)
22,94 to 95,COC(=O)NNC(=O)Cc1ccccc1

row,melting point [°C],SMILES
1,271 to 277,O=C(O)c1cc2ccccc2nc1C(=O)O
2,89 to 92,CCCOC(=O)C(OC)C(=O)Nc1cc(Cl)cc(Cl)c1 (stereo not drawn)
3,265 to 266,COC(=O)c1nn(-c2ccccc2)c(=O)c2c1c1cc(Cl)ccc1n2C
4,132 to 133,COc1cc2c(cc1OC)-c1c(Cl)nc3ccccc3c1C2=O
5,210,COc1cc(C=CC(=O)c2ccc(O)c(CC(=O)O)c2)cc(OC)c1OC
6,157 to 158,N#Cc1ccc(C(F)(F)F)cc1N=NN(C(=O)Nc1ccccc1)c1cc(C(F)(F)F)ccc1C#N
7,164 to 165,CC(CO)Oc1ccc2c(c1)c(-c1cc3cccnc3[nH]1)cn2C (stereo not drawn)
8,36 to 38,COC(=O)c1cnc(C(=O)OC)c(Cl)c1
9,161 to 163,CCOC(=O)C1=C(C)NC(=O)N(C(=O)OCC)C1c1ccccc1C(F)(F)F (stereo not drawn)
10,234 to 237,CC1CN(c2cc3c(cc2F)C(=O)c2nc4ccccc4c(=O)n2-3)CCN1C(=O)OC(C)(C)C (stereo not drawn)
11,110,COC(=O)NC1CCN(c2nc(N3CCOCC3)c3ncnc(N(C)Cc4ccccc4)c3n2)CC1
12,207 to 208,O=C1Nc2ccccc2N(C(=O)CN2C(=O)c3ccccc3C2=O)C2CCCC12 (stereo not drawn)
13,115 to 117,N#CC1Sc2ccccc2N1C(=O)c1ccc(Cl)cc1 (stereo not drawn)
14,164,CCOC(=O)C1=C(C)N(C)C(C)=C(C(=O)OC)C1c1cc([N+](=O)[O-])ccc1Cl (stereo not drawn)
15,308 to 311,Clc1ccc(-c2ccnc(Nc3nc4ccccc4[nH]3)n2)cn1
16,123 to 126,O=CNC1CCc2c([nH]c3ccccc23)C1 (stereo not drawn)
17,211,O=C(Nc1ncc[nH]1)c1cnc2c(C(F)(F)F)cccc2c1O
18,235 to 236,N#Cc1cc(-c2c3ccccc3cc3sc4ccccc4c23)ccc1OCC(=O)O
19,220 to 221,CN(C)c1cccc(-c2nc3c(N[C@H]4[C@@H](C(N)=O)[C@@H]5C=C[C@H]4C5)c(Br)cnc3[nH]2)c1
20,129 to 130,COc1ccc(C2(O)C=CC=CC2CCc2c(Cl)cncc2Cl)cc1OC1CCCC1 (stereo not drawn)
21,174 to 177,Cc1nn(-c2ccccc2)c(-c2ccc(Cl)cc2)c1CC(=O)O
